In PMC10221320:
Read-outs that look alike come from different tables or passages of the source.

Key:
[1] = cited from earlier work
From the text: (§1) Venom-derived toxins affecting ASICs may cause pain or, on the contrary, have analgesic, anti-inflammatory or neuroprotective effects. The first identified peptide agonist of ASIC channels, from the venom of the coral snake Micrurus tener tener, is a complex of MitTxα (Kunitz fold) and MitTxβ (phospholipase A2-like protein) subunits.

ASIC2a = conditions: ref [36]; cited from earlier work
hERG channels = system: hERG channels; set-up: method as in PMID 29134638; conditions: ref [36]; cited from earlier work
NaV1.8 = system: NaV1.8; set-up: method as in PMID 29134638; conditions: ref [36]; cited from earlier work
[2] = ref [34]; cited from earlier work
ASIC1b = conditions: ref [36]; cited from earlier work
ASIC3 = conditions: cited from earlier work
From the text: Some non-selective, low-molecular ligands of ASIC channels, acting at micromolar concentrations, are enabled for clinical medicine and veterinary procedure: local anesthetics (lidocaine and tetracaine), nonsteroidal anti-inflammatory drugs (NSAIDs) (ibuprofen, aspirin, and diclofenac), potassium-sparing diuretic amiloride and the antibacterial/antiparasitic drug, diminazene. […] Preclinical and clinical stu ... || Venom-derived toxins affecting ASICs may cause pain or, on the contrary, have analgesic, anti-inflammatory or neuroprotective effects. The first identified peptide agonist of ASIC channels, from the venom of the coral snake Micrurus tener tener, is a complex of MitTxα (Kunitz fold) and MitTxβ (phospholipase A2-like protein) subunits.

[3] = 1 mg/kg intramuscularly; ref [34]; cited from earlier work
From the text: (§2) Contradictory results concerning the involvement of ASIC1a channels in the antidepressant activity and the in vivo effects of ASIC1a inhibitors, namely tarantula toxin, PcTx1, have been published earlier. Thus, in a number of experiments, it was shown that ASI ...

ASICs = conditions: ref [45]; cited from earlier work
CD-1 mice [4] = assay: Acetic-acid-induced writhings (acid-induced muscle pain model); assay type: in vivo, mouse; conditions: 1 mg/kg i.v.
Method: (§3) The animal studies were performed under the European Commission’s legislation (Directives 86/609/EEC, 2010/63/EU), the National Standard of the Russian Federation “Good Laboratory Practice” (GOST P 53434-2009, Moscow, Russia), and Committee on Ethics of Laboratory Animal Handling № 05/21, 20 September 2021 and 08/21, 30 December 2021 protocols (PIBOC FEB RAS). Adult female CD-1 mice weighing 25 ± 2 g were subjected to a 12 h light–dark cycle at room temperature and with ad libitum access to food and water. There were seven or eight individuals in each group.
Three groups of animals were treated with peptides at doses of 0.01, 0.1 and 1 mg/kg (intravenously) 15 min before an injection of 300 μL of a 0.7% acetic acid solution. The control animal group received an identical volume of saline. The positive control group received intravenously a dose 1 mg/kg of diclofenac (Hemofarm A.D., Vršac, Serbia), a commercial drug of the NSAID group. Fifteen minutes immediately after acid administration, the number of writhings and the writhing time (time in a spasmodic state) were counted.

CD-1 mice [5] = assay: Carrageenan-induced paw edema; assay type: in vivo, mouse; conditions: 1 mg/kg
Method: as §3
Three groups of animals were treated with peptides at doses of 0.01, 0.1 and 1 mg/kg (intravenously) 30 min before the induction of inflammation. The control animal group received an identical volume of saline. The positive control group received diclofenac (Hemofarm A.D., Vršac, Serbia) at a dose of 1 mg/kg. The edema was induced by a 20 µL injection of 1.5% solution of λ-carrageenan (Sigma Aldrich, St. Louis, MO, USA) in the hind paw pad. The resulting edema was measured after 1, 2, 4 and 24 h using a plethysmometer (Ugo Basile, Gemonio (VA), Italy). The anti-inflammatory threshold was estimated as a decrease in the paw volume and volume growth index (%), calculated using the formula: Volume Growth Index (%) = [(VC − Vi)/Vi] × 100, (1), where VC is the volume of the paw after the introduction of carrageenan and Vi is the volume of the paw before the introduction of carrageenan.

CD-1 mice [6] = assay: Hot plate test; assay type: in vivo, mouse; conditions: 52 °C
Method: as §3
Thermal analgesia was tested with a Hot Plate Analgesia Meter (IITC Life Science Inc., Woodland Hills, CA, USA). Measurements were carried out 15 min after the intravenous injection of peptides at doses of 0.1 and 1 mg/kg. The control animals received 300 µL of sterile saline. Metamizole (Pharmstandard, Russia) was used as a positive control administrated intraperitoneally at a dose of 500 mg/kg 30 min before testing. Animals were placed individually on the preheated surface of a plate (up to 52 °C), and nociceptive reactions, withdrawal, or licking of the front and hind legs were recorded.

ASIC1a = conditions: ref [20]; cited from earlier work
From the text: as §1

[7] = eight hours after a stroke; ref [18],[19]; cited from earlier work
rats = conditions: ref [53]; cited from earlier work
From the text: as §2

[8] = system: ASIC1a, ASIC1b, ASIC2a and ASIC3 channels; conditions: ref [7],[13]; read-out: IC50, inhibition of ASIC1a, ASIC1b, ASIC2a and ASIC3 channels; cited from earlier work
From the text: Some non-selective, low-molecular ligands of ASIC channels, acting at micromolar concentrations, are enabled for clinical medicine and veterinary procedure: local anesthetics (lidocaine and tetracaine), nonsteroidal anti-inflammatory drugs (NSAIDs) (ibuprofen, aspirin, and diclofenac), potassium-sparing diuretic amiloride and the antibacterial/antiparasitic drug, diminazene. […] Preclinical and clinical stu ...

Compound: APETx2
- effect on edema ([1]; ref [34]): partially reduces edema
- effect on ASIC2a (ASIC2a): potentiation
- hERG inhibition (hERG channels): ability to inhibit hERG channels
- NaV1.8 inhibition (NaV1.8): inhibition
- antihyperalgesia [2]: induces antihyperalgesia in an acid-induced muscle pain model
- effect on ASIC1b (ASIC1b): potentiation
- IC50 (ASIC3; ref [20], read-out: IC50, ASIC3): 37 to 63 nM
- locomotion and CNS-mediated behavior [3]: did not impair locomotion and the CNS-mediated behavior in the open field test

Compound: O=C(O)Cc1ccccc1Nc1c(Cl)cccc1Cl [Diclofenac]
- inflammation-induced expression of ASICs (ASICs): decreases the inflammation-induced expression of ASICs
- effect on writhings, positive control (CD-1 mice [4]): reduced the number of writhings
- anti-inflammatory effect, positive control (CD-1 mice [5]): reduced inflammation more rapidly (1–24 h range)
- analgesic effect in hot plate test (CD-1 mice [6]; peptides 0.1 and 1 mg/kg i.v.): did not affect the pain sensitivity in this test
- IC50 (ASIC3; ref [45], read-out: IC50, sustained current component of ASIC3): 92000 ± 19000 nM

Compound: PcTx1: ICK-peptide from the tarantula Psalmopoeus cambridgei
- antinociceptive effect ([1]; ref [23]): strong antinociceptive effect in the acute and neuropathic pain models
- IC50 (ASIC1a): 0.3 to 3.7 nM
- neuroprotection after stroke [7]: ineffective
- anxiety levels (rats): increases anxiety levels in rats

Compound: Cc1c(N(C)CS(=O)(=O)O)c(=O)n(-c2ccccc2)n1C [Metamizole sodium]
- increase in latent time of licking both front and hind paws (CD-1 mice [6]; 500 mg/kg i.p. 30 min before testing): more than 1.5 times

Compound: N=C(N)NC(=O)c1nc(Cl)c(N)nc1N [amiloride]
- IC50 [8]: 5000 to 100000 nM
